Measured values as given in patent US20110159515A1, “COMPOSITIONS AND METHODS FOR THE RAPID GROWTH AND DETECTION OF MICROORGANISMS” (SOLUS SCIENTIFIC SOLUTIONS LIMITED, priority 2008, published 2011).

Assays:
S. aberdeen = experiment: Direct binding Salmonella assay on food cultures; conditions: white plate, Lucy 1
Experimental: 25 g of a food sample were added to 225 ml culture medium according to the first aspect of the invention. Alternatively a surface swab may be taken from a 10×10 cm area on a carcass and cultured in 2-5 ml culture medium according to the first aspect of the invention. Specifically the culture medium comprised 1% peptone, 8 g/L sodium tetrathionate and 0.15 mg/L brilliant green. […]
The sample was heated to 100° C. for 5 minutes and allowed to cool. One hundred microlitres of each test sample was added directly to a well of a solid white 96 well high binding microtitre plate (Greiner Bio One) and incubated at 37° C. for 30 minutes. During incubation, the lipid A portion of the LPS binds to the surface of the plate via non-covalent hydrophobic interactions (FIG. 1a (1), FIG. 1b(1)). Following incubation the plate was emptied and the wells washed three times with a wash buffer comprising 0.01M sodium phosphate buffer, pH 7.4, containing 0.147M NaCl and 0.05 (v/v) Tween 20.
White Plate read on Lucy 1 luminometer

E. coli = experiment: Direct binding Salmonella assay (chemiluminescence immunosorbent)
L. innocua = experiment: as above; conditions: 10^6 L. innocua
Experimental: The sample was heated to 100° C. for 5 minutes and allowed to cool. One hundred microlitres of each test sample was added directly to a well of a solid white 96 well high binding microtitre plate (Greiner Bio One) and incubated at 37° C. for 30 minutes. During incubation, the lipid A portion of the LPS binds to the surface of the plate via non-covalent hydrophobic interactions (FIG. 1a (1), FIG. 1b(1)).
The final concentration of antibody per well was 50 ng. The plate-bound sample (Salmonella LPS/core oligosaccharide) and antibody were incubated in the coated wells for 30 minutes as 37° C. Following incubation, plates were washed three times in wash buffer and pat dried prior to detection (FIG. 1a(2), FIG. 1b(2)).
When the anti-Salmonella is directly labelled with acridinium ester, plates were placed into a luminometer. 30 μl of trigger solution A and 60 μl of trigger solution B was added to each well of the microtitre plate to initiate light output from conjugated acridinium ester (FIG. 1a(3)). The luminometer settings were as follows:
When the anti-Salmonella antibody is not labelled, a second binding member, a goat anti-mouse IgG2b conjugate is used. Post column IgG2b was diluted 1:100 in a diluent comprising 3% (w/v) non-fat milk powder and 0.05% (v/v) Tween 20 and 100 ul of this solution was added to each well of the plate (FIG. 1b(3)). Following incubation at 37° C. for 60 minutes the plate was washed four times in wash buffer, dried and read as above (FIG. 1b(4)).
Monoclonal antibody (1:100 dilution) was incubated with either Salmonella or Listeria to determine optimum incubation times:
Monoclonal antibody (1:200 dilution) was incubated with either Salmonella or Listeria to determine optimum incubation times: […]

`CCCCCCCCCCCCOS(=O)(=O)[O-].[Na+]` [SDS, sodium dodecyl sulphate] was tested, and the “signal, food culture” value (S. aberdeen; 0.1% SDS, +ve Chicken (10 C.F.U. S. aberdeen, 18 hours)) was 131,488 ± 15,357, the “signal, food culture” value (S. aberdeen; 0.1% SDS, +ve Drinking Chocolate (10 C.F.U. S. aberdeen, 18 hours)) was 45,626 ± 3204 and the “signal, food culture” value (S. aberdeen; 0.1% SDS, +ve Mayonnaise (10 C.F.U. S. aberdeen, 18 hours)) was 746,670 ± 86,449. The “signal, food culture” value (S. aberdeen; 0.1% SDS, −ve Chicken) was 3426 ± 316, the “signal, food culture” value (S. aberdeen; 0.1% SDS, −ve Drinking Chocolate) was 1315 ± 63 and the “signal, food culture” value (S. aberdeen; 0.1% SDS, −ve Mayonnaise) was 4180 ± 610. The “signal, food culture” value (S. aberdeen; 0.5% SDS, +ve Chicken (10 C.F.U. S. aberdeen, 18 hours)) was 36,770 ± 2,020, the “signal, food culture” value (S. aberdeen; 0.5% SDS, +ve Drinking Chocolate (10 C.F.U. S. aberdeen, 18 hours)) was 110,756 ± 5737^ and the “signal, food culture” value (S. aberdeen; 0.5% SDS, +ve Mayonnaise (10 C.F.U. S. aberdeen, 18 hours)) was 387,924 ± 106,504. The “signal, food culture” value (S. aberdeen; 0.5% SDS, −ve Chicken) was 4494 ± 904, the “signal, food culture” value (S. aberdeen; 0.5% SDS, −ve Drinking Chocolate) was 3266 ± 142 and the “signal, food culture” value (S. aberdeen; 0.5% SDS, −ve Mayonnaise) was 3260 ± 733. The “signal, direct binding Salmonella assay” value (E. coli; 0% SDS, conjugate 1:100, 10^6 E. coli, black and white plates) was 579 ± 37, the “signal, direct binding Salmonella assay” value (E. coli; 0.1% (w/v) SDS, conjugate 1:100, 10^6 E. coli, white plate, Lucy I) was 4,151 ± 256^ and the “signal, direct binding Salmonella assay” value (E. coli; 0.1% SDS (first block), conjugate 1:100, 10^6 E. coli, black and white plates) was 579 ± 37. The “signal, direct binding Salmonella assay” value (E. coli; 0.1% SDS (second block), conjugate 1:100, 10^6 E. coli, black and white plates) was 658 ± 108, the “signal, direct binding Salmonella assay” value (E. coli; 0.2% (w/v) SDS, conjugate 1:100, 10^6 E. coli, white plate, Lucy I) was 3,322 ± 479 and the “signal, direct binding Salmonella assay” value (E. coli; 0.3% SDS, conjugate 1:100, 10^6 E. coli, white plate, Lucy I) was 2,491 ± 107. The “signal, direct binding Salmonella assay” value (E. coli; 0.4% SDS, conjugate 1:100, 10^6 E. coli, white plate, Lucy I) was 3,197 ± 5, the “signal, direct binding Salmonella assay” value (E. coli; 0.5% (w/v) SDS (first block), conjugate 1:100, 10^6 E. coli, black and white plates) was 684 ± 88 and the “signal, direct binding Salmonella assay” value (E. coli; 0.5% (w/v) SDS, conjugate 1:50, E. coli 10^6, black and white plate, tube luminometer) was 958 ± 242. For the same molecule, the “signal, direct binding Salmonella assay” value (E. coli; 0.5% SDS (second block), conjugate 1:100, 10^6 E. coli, black and white plates) was 714 ± 74, the “signal, direct binding Salmonella assay” value (E. coli; 0.5% SDS, conjugate 1:100, 10^6 E. coli, black and white plate, tube luminometer) was 922 ± 78 and the “signal, direct binding Salmonella assay” value (E. coli; 0.5% SDS, conjugate 1:100, 10^6 E. coli, white plate, Lucy I) was 4,574 ± 1,885. For the same molecule, the “signal, direct binding Salmonella assay” value (E. coli; 0.5% SDS, conjugate 1:150, 10^6 E. coli, black and white plate, tube luminometer) was 707 ± 11, the “signal, release and detection of core oligosaccharide” value (L. innocua; 0.1% SDS) was 7863 relative light units and the “signal, release and detection of core oligosaccharide” value (L. innocua; 0.5% SDS) was 8051 relative light units.
